Laboratory results published in patent US8017786B2, “Substituted β-phenyl-α-hydroxy-propanoic acid, synthesis method and use thereof” (Northwest University, priority 2006, dated 2011).
Where a name gives a salt, the structure may show the parent alone.

Legend:
Assay type in all cases: in vivo, rat
anesthetized rats = test: Blood pressure and left ventricular function of anesthetized rats; conditions: for change-rate of left intraventricular pressure MAX / change-rate of left intraventricular pressure, -MAX / contractive pressure / diastolic pressure / heart rate / left intraventricular pressure / mean arterial pressure: 11.4 mg/kg duodenal
Experimental: All data were input into PowerLab/8Sp data acquisition and processing system via RM-6000 multi-channel polygraph, and recorded, analyzed and processed by PowerLab/8Sp.
The abdomen was opened 1.5 cm below xiphoid bone to isolate duodenum, a small incision was formed on the duodenum away from blood vessels by ophthalmic scissors, a catheter was inserted and the incision was fixed by suture for administration. After the end of operation and a further waiting period of 30 min, normal data were recorded once the indexes to be monitored were stable.
Test drugs were duodenally administered via the catheter, and the indexes were monitored 5, 15, 30, 60, 90 and 120 min after the administration. The change ratios of the indexes were calculated in accordance with the following formula, and were used for statistic analysis among groups.

[1] = system: rats with acute myocardial ischemia; test: ST-T segment of ECG in rats with myocardial ischemia; conditions: 10 mg/kg intragastric
Experimental: (§1) At 0.5 h after the rats of these groups were administered intragastrically, the standard II lead electrocardiogram (before modeling) was recorded, and the height of ST-T segment was measured. The rats of sham operation group were then subjected to coronary artery braid without ligation, and the rats of other groups were subjected to coronary artery ligation in accordance with the following method to establish cute myocardial ischemia models. The rats were subjected to etherization, fixed at supine position, and their normal electrocardiograms (before modeling) were recorded. The skin of left thorax was incised under aseptic conditions, the 4th intercostal muscles were isolated in blunt way, the heart was extruded by light pressure to the right thorax, the left anterior descending coronary artery was ligated at a position 2˜3 mm departing from the left coronary artery origin and between the pulmonary conus and the left auricle of heart, then the heart was sent back to thorax cavity immediately and sutured the incision. Penicillin was smeared topically for the prevention of infections. After operation, the electrocardiogram of postischemia was recorded immediately (at 0 min after modeling), and the height of ST-T segment was measured.

[2] = system: superoxide dismutase (SOD); test: Serum SOD activity in rats with myocardial ischemia; conditions: 10 mg/kg intragastric; serum, 24 h after ligation
Experimental: as §1

[3] = system: rats with acute myocardial ischemia; test: Area of myocardial infarction in rats with acute myocardial ischemia (coronary artery ligation); conditions: 10 mg/kg intragastric; 24 h after coronary artery ligation
Experimental: as §1

malondialdehyde (MDA) = test: Serum MDA content in rats with myocardial ischemia; conditions: 10 mg/kg intragastric; serum, 24 h after ligation
Experimental: as §1

[4] = system: lactate dehydrogenase (LDH); test: Serum LDH activity in rats with myocardial ischemia; conditions: 10 mg/kg intragastric; serum, 24 h after ligation
Experimental: as §1

creatine kinase (CK) = test: Serum CK activity in rats with myocardial ischemia; conditions: 10 mg/kg intragastric; serum, 24 h after ligation
Experimental: as §1

[5] = system: creatine kinase isoenzyme (CK-MB); test: Serum CK-MB activity in rats with myocardial ischemia; conditions: 10 mg/kg intragastric; serum, 24 h after ligation
Experimental: as §1

Q: For `COc1ccc(CCN(C)CCCC(C#N)(c2ccc(OC)c(OC)c2)C(C)C)cc1OC` (stereo not drawn) [Verapamil, verapamil hydrochloride, reference compound], which “change-rate of left intraventricular pressure MAX” value (anesthetized rats; 5 min after administration) is on record?
A: 4857.7 ± 1002.4 mmHg/s

Q: What about the “change-rate of left intraventricular pressure, -MAX” value (from here on “change-rate … -MAX”) (anesthetized rats; 5 min after administration) of the same molecule?
A: −3812.9 ± 779.3 mm/Hg/s

Q: And the contractive pressure (anesthetized rats; 5 min after administration)?
A: 115.30 ± 19.35 mmHg

Q: And the diastolic pressure (anesthetized rats; 5 min after administration)?
A: 59.69 ± 12.55 mmHg

Q: What about the heart rate (anesthetized rats; 5 min after administration) of the same molecule?
A: 345.03 ± 33.81 beat/min

Q: What about the left intraventricular pressure (anesthetized rats; 5 min after administration) of the same molecule?
A: 128.71 ± 14.20 mmHg

Q: And the mean arterial pressure (anesthetized rats; 5 min after administration)?
A: 78.22 ± 14.31 mmHg

Q: What about the “change-rate of left intraventricular pressure MAX” value (anesthetized rats; 15 min after administration) of the same molecule?
A: 4284.9 ± 793.2 mmHg/s

Q: And the “change-rate … -MAX” value (anesthetized rats; 15 min after administration)?
A: −3548.9 ± 707.7 mm/Hg/s

Q: What about the contractive pressure (anesthetized rats; 15 min after administration) of the same molecule?
A: 98.48 ± 16.13 mmHg

Q: What about the diastolic pressure (anesthetized rats; 15 min after administration) of the same molecule?
A: 50.08 ± 9.88 mmHg

Q: What about the heart rate (anesthetized rats; 15 min after administration) of the same molecule?
A: 324.96 ± 36.20 beat/min

Q: And the left intraventricular pressure (anesthetized rats; 15 min after administration)?
A: 120.22 ± 12.98 mmHg

Q: And the mean arterial pressure (anesthetized rats; 15 min after administration)?
A: 66.21 ± 11.57 mmHg

Q: And the “change-rate of left intraventricular pressure MAX” value (anesthetized rats; 30 min after administration)?
A: 4152.8 ± 901.5 mmHg/s

Q: What about the “change-rate … -MAX” value (anesthetized rats; 30 min after administration) of the same molecule?
A: −3416.6 ± 767.5 mm/Hg/s

Q: What about the contractive pressure (anesthetized rats; 30 min after administration) of the same molecule?
A: 94.47 ± 17.17 mmHg

Q: And the diastolic pressure (anesthetized rats; 30 min after administration)?
A: 48.00 ± 9.98 mmHg

Q: What about the heart rate (anesthetized rats; 30 min after administration) of the same molecule?
A: 322.02 ± 51.09 beat/min

Q: And the left intraventricular pressure (anesthetized rats; 30 min after administration)?
A: 116.59 ± 13.59 mmHg

Q: And the mean arterial pressure (anesthetized rats; 30 min after administration)?
A: 63.49 ± 11.93 mmHg

Q: What about the “change-rate of left intraventricular pressure MAX” value (anesthetized rats; 60 min after administration) of the same molecule?
A: 3919.4 ± 784.0 mmHg/s

Q: What about the contractive pressure (anesthetized rats; 60 min after administration) of the same molecule?
A: 98.49 ± 22.31 mmHg

Q: And the diastolic pressure (anesthetized rats; 60 min after administration)?
A: 48.81 ± 11.47 mmHg

Q: What about the heart rate (anesthetized rats; 60 min after administration) of the same molecule?
A: 317.91 ± 58.04 beat/min

Q: And the left intraventricular pressure (anesthetized rats; 60 min after administration)?
A: 115.68 ± 15.37 mmHg

Q: And the mean arterial pressure (anesthetized rats; 60 min after administration)?
A: 65.37 ± 14.57 mmHg

Q: What about the “change-rate of left intraventricular pressure MAX” value (anesthetized rats; 90 min after administration) of the same molecule?
A: 3759.0 ± 814.5 mmHg/s

Q: And the “change-rate … -MAX” value (anesthetized rats; 90 min after administration)?
A: −3247.4 ± 773.2 mm/Hg/s

Q: What about the contractive pressure (anesthetized rats; 90 min after administration) of the same molecule?
A: 99.15 ± 23.91 mmHg

Q: What about the diastolic pressure (anesthetized rats; 90 min after administration) of the same molecule?
A: 49.38 ± 13.27 mmHg

Q: And the heart rate (anesthetized rats; 90 min after administration)?
A: 329.61 ± 55.70 beat/min

Q: What about the left intraventricular pressure (anesthetized rats; 90 min after administration) of the same molecule?
A: 115.10 ± 16.60 mmHg

Q: What about the mean arterial pressure (anesthetized rats; 90 min after administration) of the same molecule?
A: 65.97 ± 16.34 mmHg

Q: What about the “change-rate of left intraventricular pressure MAX” value (anesthetized rats; 120 min after administration) of the same molecule?
A: 4044.6 ± 844.9 mmHg/s

Q: And the “change-rate … -MAX” value (anesthetized rats; 120 min after administration)?
A: −3452.2 ± 630.9 mm/Hg/s

Q: And the contractive pressure (anesthetized rats; 120 min after administration)?
A: 102.58 ± 27.01 mmHg

Q: And the diastolic pressure (anesthetized rats; 120 min after administration)?
A: 51.84 ± 13.93 mmHg

Q: And the heart rate (anesthetized rats; 120 min after administration)?
A: 328.05 ± 58.98 beat/min

Q: And the left intraventricular pressure (anesthetized rats; 120 min after administration)?
A: 118.39 ± 16.55 mmHg

Q: And the mean arterial pressure (anesthetized rats; 120 min after administration)?
A: 68.75 ± 17.93 mmHg

Q: And the “change-rate of left intraventricular pressure MAX” value (anesthetized rats; before administration)?
A: 5455.9 ± 1418.1 mmHg/s

Q: And the “change-rate … -MAX” value (anesthetized rats; before administration)?
A: −4215.6 ± 1058.0 mm/Hg/s

Q: What about the contractive pressure (anesthetized rats; before administration) of the same molecule?
A: 137.10 ± 28.79 mmHg

Q: What about the diastolic pressure (anesthetized rats; before administration) of the same molecule?
A: 75.39 ± 19.27 mmHg

Q: And the heart rate (anesthetized rats; before administration)?
A: 363.19 ± 46.67 beat/min

Q: What about the left intraventricular pressure (anesthetized rats; before administration) of the same molecule?
A: 137.79 ± 18.96 mmHg

Q: And the mean arterial pressure (anesthetized rats; before administration)?
A: 95.96 ± 22.22 mmHg

Q: And the “dp/dt (in words)” value (anesthetized rats; verapamil group (11.4 mg/kg))?
A: significantly reduced

Q: And the “effect on the heart rate (in words)” value (anesthetized rats; verapamil group (11.4 mg/kg))?
A: significantly reduced

Q: And the “left intraventricular pressure (in words)” value (anesthetized rats; verapamil group (11.4 mg/kg))?
A: significantly reduced

Q: What about the “−dp/dt (in words)” value (anesthetized rats; verapamil group (11.4 mg/kg)) of the same molecule?
A: significantly reduced

Q: What about the “mean arterial pressure, systolic pressure and diastolic pressure (in words)” value (anesthetized rats; verapamil group (11.4 mg/kg), 5-120 min) of the same molecule?
A: significantly reduce

Q: What about the “Elevation of ST-T segment” value ([1]; 0 min after modeling) of the same molecule?
A: 0.23 ± 0.12 mV

Q: And the “Elevation of ST-T segment” value ([1]; 24 h after modeling)?
A: 0.18 ± 0.04 mV

Q: And the “Elevation of ST-T segment, Change rate” value ([1]; 24 h after modeling)?
A: 19.17 ± 20.94 %

Q: What about the “Elevation of ST-T segment” value ([1]; before modeling) of the same molecule?
A: 0.23 ± 0.04 mV

Q: What about the SOD [2] of the same molecule?
A: 126.16 ± 28.10 U/mL

Q: What about the Infarct region weight [3] of the same molecule?
A: 0.18 ± 0.04 g

Q: And the Non-infarct region weight [3]?
A: 0.46 ± 0.08 g

Q: And the “Percentage (infarct cardiac muscles of whole ventricle, by weight)” value [3]?
A: 27.60 ± 5.03 %

Q: What about the Ventricle weight [3] of the same molecule?
A: 0.65 ± 0.09 g

Q: What about the MDA (malondialdehyde (MDA)) of the same molecule?
A: 11.86 ± 5.93 nmol/mL

Q: And the LDH [4]?
A: 1160.8 ± 145.0 U/L

Q: And the CK (creatine kinase (CK))?
A: 752.2 ± 102.8 U/L

Q: What about the CK-MB [5] of the same molecule?
A: 776.6 ± 127.6 U/L
